Data reported in US5917034A, “Antithrombotic n-amidinopiperidine and benzamidine derivatives” (Pfizer Inc., priority 1995, dated 1999).
pKi: −log10 of the molar value. Structures can show the parent of a compound that is named as a salt.

What was measured:
[1] = biological target: T1, bovine pancreatic trypsin (Bos taurus, UniProt P00760); assay: Chromogenic assay, inhibition of trypsin; assay type: biochemical; conditions: in vitro, substrate S2222, pH 8.0, 30° C.
T1 construct: from tissue; host or cells: bovine pancreas
T1 sequence (P00760 24-246): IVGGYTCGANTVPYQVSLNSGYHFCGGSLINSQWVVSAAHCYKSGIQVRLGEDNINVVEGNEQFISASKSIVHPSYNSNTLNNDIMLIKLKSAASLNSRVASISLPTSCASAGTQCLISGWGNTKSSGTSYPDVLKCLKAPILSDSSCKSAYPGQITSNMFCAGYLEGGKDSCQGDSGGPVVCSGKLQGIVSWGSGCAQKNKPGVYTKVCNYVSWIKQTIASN
Procedure: (§1) The inhibition of thrombin, trypsin, plasmin or factor Xa is measured in 96 well plate chromogenic assays. The percentage inhibition and IC50 are calculated from triplicate samples of an 8 concentration dose-response curve. From the substrate Km and IC50, the Ki for each inhibitor is calculated. All assays are carried out in a total incubation of 200 μl of 50 mM HEPES and 150 mM NaCl at pH 8.0, and all compound dilutions are preincubated with enzyme at room temperature for 15 minutes prior to addition of substrate. After 30 minutes incubation at 30° C., the O.D. is measured at […] in a 96 well plate reader. Thrombin activity is measured using bovine thrombin and S2238 (H-D-Phe-Pip-Arg-pNA), bovine pancreatic trypsin is assayed with S2222 (Benz-Isoleu-Glu-Gly-Arg-pNA), bovine plasma plasmin is assayed with Chromozym PL (Tosyl-Giy-Pro-Lys-pNA)and bovine factor Xa is assayed in 50 mM Tris, 150 mM NaCl, pH 7.5 buffer with S2222.
The following Table illustrates the in vitro inhibitory activities against thrombin and trypsin for a range of the compounds of the invention.

bovine thrombin = bovine thrombin (Bos taurus, UniProt P00735); assay: Chromogenic assay, inhibition of thrombin; assay type: biochemical
Procedure: as §1

SMILES	Ki [1] [nM]	pKi (bovine thrombin)
N=C(N)N1CCC(OCCC2CCCCN2C(=O)[C@H](CC(=O)O)NC2CCCCCCC2)CC1 (mixture of isomers) [Example 16, N-(N-Cyclooctyl-(S)-α-aspartyl)-2(R,S)-[2-(N-amidino-4-piperidyloxy)ethyl]piperidine dihydrochloride]	720	
N=C(N)N1CCC(OCCC2CCCCN2C(=O)[C@H](CC(=O)O)NC2CCCCC2O)CC1 (mixture of isomers) [Example 17, N-[N-(2-Hydroxycyclohexyl)-(S)-α-aspartyl]-2(R,S)-[2-(N-amidino-4-Piperidyloxy)ethyl]piperidine bis-trifluoroacetate]	11000	7.46
CCN(C1CCCCC1)[C@@H](CC(=O)O)C(=O)N1CCCCC1CCOC1CCN(C(=N)N)CC1 (mixture of isomers) [Example 29, N-(N-Cyclohexyl-N-ethyl-(S)-α-aspartyl)-2(R,S)-[2-(N-amidino-4-piperidyloxy)ethyl]piperidine dihydrochloride]	5000	7.80
N=C(N)c1ccc(OCCC2CCCCN2C(=O)[C@H](CC(=O)O)NC2CCCCC2)cc1 (mixture of isomers) [Example 31, N-(N-Cyclohexyl-(S)-α-aspartyl)-2(R,S)-[2-(4-amidinophenoxy)ethyl]piperidine dihydrochloride]	1300	7.35
N=C(N)N1CCC(OCC[C@@H]2CCCCN2C(=O)[C@H](CC(=O)O)NC2CC3CCC2C3)CC1 (stereo partly drawn) [Example 3, N-[N-(2-Norbornyl)-(S)α-aspartyl]-2(S)-[2-(N-amidino-4-piperidyloxy)ethyl]piperidine dihydrochloride]	1200	8.39
CN(C1CCCC(C)(C)C1)[C@@H](CC(=O)O)C(=O)N1CCCC[C@H]1CCOC1CCN(C(=N)N)CC1 (stereo partly drawn) [Example 25, N-[N-Methyl-N-(3,3-dimethylcyclohexyl)-(S)-α-aspartyl]-2(S)-[2-(N-amidino-4-piperidyloxy)ethyl]piperidine dihydrochloride]	360	8.70
